From patent US20240025919A1, “AZA-TETRACYCLIC OXAZEPINE COMPOUNDS AND USES THEREOF” (Genentech, Inc., priority 2022, published 2024)
pIC50: −log10 of the molar value.

Columns and labels:
KRAS G12D = KRAS G12D (Homo sapiens (Human), UniProt P01116, G12D); assay: KRAS G12D LoEnz Biochemical Assay, BODIPY-GDP Exchange TR-FRET (SOS1-mediated nucleotide exchange); settings: read-out: KRas (G12D) GDP HTRF IC50
KRAS WT = KRAS WT (Homo sapiens (Human), UniProt P01116); assay: KRAS WT Biochemical Assay, BODIPY-GDP Exchange TR-FRET (Example 501; 3 nM KRAS WT, 3 nM SOS1, 60-minute incubation); settings: read-out: KRas HTRF IC50
How it was run: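 SOS1-mediated exchange assay: 3 nM biotin-KRAS WT with terbium-streptavidin, started with 3 nM SOS1 and 300 nM BODIPY-GDP, HEPES pH 7.5 with MgCl2. TR-FRET (520/490 nm) read after 60 min; normalized to DMSO and full-inhibition control, IC50 from 4-parameter Hill fit.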

KRAS G12D, sequence (P01116-2 other isoform, or with tags, fused parts or gaps G12D): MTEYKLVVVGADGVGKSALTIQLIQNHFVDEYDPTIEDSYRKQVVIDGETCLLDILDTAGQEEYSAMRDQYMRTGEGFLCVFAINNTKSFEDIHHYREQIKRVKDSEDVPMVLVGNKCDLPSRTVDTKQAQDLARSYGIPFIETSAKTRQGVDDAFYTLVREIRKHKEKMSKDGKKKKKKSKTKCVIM
KRAS WT, sequence (P01116-2 other isoform, or with tags, fused parts or gaps): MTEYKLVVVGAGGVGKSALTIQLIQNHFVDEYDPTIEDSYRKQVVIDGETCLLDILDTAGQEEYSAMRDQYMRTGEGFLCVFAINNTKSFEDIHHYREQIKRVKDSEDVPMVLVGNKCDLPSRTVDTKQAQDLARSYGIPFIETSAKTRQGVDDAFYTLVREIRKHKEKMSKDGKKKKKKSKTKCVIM

Row | Structure (SMILES) | pIC50 (KRAS G12D) | pIC50 (KRAS WT)
1 | Cc1nc(N)cc(-c2nc3c4c(nc(OCC5(CN6CCOC7(CC7)C6)CC5)nc4c2F)N2C[C@H]4CC[C@H](N4)[C@H]2[C@H](C)O3)c1C(F)(F)F [Compound 212, 4-((5S,5aS,6S,9R)-12-((1-((4-Oxa-7-azaspiro[2.5]octan-7-yl)methyl)cyclopropyl)methoxy)-1-fluoro-5-methyl-5a,6,7,8,9,10-hexahydro-5H-4-oxa-3,10a,11,13,14-pentaaza[6,9]methanonaphtho[1,8-ab]heptalene-2-yl)-6-methyl-5-(trifluoromethyl)pyridin-2-amine] | 9.25 | 7.41
2 | Cc1nc(N)cc(-c2nc3c4c(nc(OCC5(CN6CCO[C@H](C)C6)CC5)nc4c2F)N2C[C@H]4CC[C@H](N4)[C@H]2[C@H](C)O3)c1C(F)(F)F [Compound 213, 4-((5S,5aS,6S,9R)-1-Fluoro-5-methyl-12-((1-(((R)-2-methylmorpholino)methyl)cyclopropyl)methoxy)-5a,6,7,8,9,10-hexahydro-5H-4-oxa-3,10a,11,13,14-pentaaza-6,9-methanonaphtho[1,8-ab]heptalen-2-yl)-6-methyl-5-(trifluoromethyl)pyridin-2-amine] | 9.51 | 7.87
3 | Cc1nc(N)cc(-c2nc3c4c(nc(OCC56CCN5CC(F)(F)C6)nc4c2F)N2C[C@H]4CC[C@H](N4)[C@H]2[C@H](C)O3)c1C(F)(F)F (stereo partly drawn) [Compound 214, 4-((5S,5aS,6S,9R)-12-((3,3-Difluoro-1-azabicyclo[3.2.0]heptan-5-yl)methoxy)-1-fluoro-5-methyl-5°,6,7,8,9,10-hexahydro-5H-4-oxa-3,10°,11,13,14-pentaaza-6,9-methanonaptho[1,8-ab]heptalen-2-yl)-6-methyl-5-(trifluoromethyl)pyridin-2-amine] | 9.38 | 7.25
4 | Cc1nc(N)cc(-c2nc3c4c(nc(OC[C@@]56CCCN5C[C@H](F)C6)nc4c2F)N2C[C@H]4CC[C@H](N4)[C@H]2[C@H](C)O3)c1C(F)(F)F [Compound 215, 4-((5S,5aS,6S,9R)-1-Fluoro-12-(((2R,7aS)-2-fluorotetrahydro-1H-pyrrolizin-7°(5H)-yl)methoxy)-5-methyl-5°,6,7,8,9,10-hexahydro-5H-4-oxa-3,10°,11,13,14-pentaaza-6,9-methanonaphtho[1,8-ab]heptalen-2-yl)-6-methyl-5-(trifluoromethyl)pyridin-2-amine] | 9.68 | 8.15
5 | Cc1nc(N)cc(-c2nc3c4c(nc(OC[C@]56CCCN5CC(F)(F)C6)nc4c2F)N2C[C@H]4CC[C@H](N4)[C@H]2[C@H](C)O3)c1C(F)(F)F [Compound 217, 4-((5S,5aS,6S,9R)-12-(((R)-2,2-difluorotetrahydro-1H-pyrrolizin-7a(5H)-yl)methoxy)-1-fluoro-5-methyl-5a,6,7,8,9,10-hexahydro-5H-4-oxa-3,10a,11,13,14-pentaaza-6,9-methanonaphtho[1,8-ab]heptalen-2-yl)-6-methyl-5-(trifluoromethyl)pyridin-2-amine] | 8.47 | 6.62
6 | Cc1nc(N)cc(-c2nc3c4c(nc(OCC5(CN6C[C@@H](C)O[C@@H](C)C6)CC5)nc4c2F)N2C[C@H]4CC[C@H](N4)[C@H]2[C@H](C)O3)c1C(F)(F)F [Compound 218, 4-((5S,5aS,6S,9R)-12-((1-(((2R,6S)-2,6-Dimethylmorpholino)methyl)cyclopropyl)methoxy)-1-fluoro-5-methyl-5a,6,7,8,9,10-hexahydro-5H-4-oxa-3,10a,11,13,14-pentaaza-6,9-methanonaphtho[1,8-ab]heptalen-2-yl)-6-methyl-5-(trifluoromethyl)pyridin-2-amine] | 9.54 | 7.85
7 | Cc1nc(N)c(F)c(-c2nc3c4c(nc(OCC5(CN6CCOCC6)CC5)nc4c2F)N2C[C@H]4CC[C@H](N4)[C@H]2[C@H](C)O3)c1C(F)(F)F [Compound 219, 3-Fluoro-4-((5S,5aS,6S,9R)-1-fluoro-5-methyl-12-((1-(morpholinomethyl)cyclopropyl)methoxy)-5a,6,7,8,9,10-hexahydro-5H-4-oxa-3,10a,11,13,14-pentaaza-6,9-methanonaphtho[1,8-ab]heptalen-2-yl)-6-methyl-5-(trifluoromethyl)pyridin-2-amine] | 9.34 | 7.33
8 | Cc1nc(N)c(F)c(-c2nc3c4c(nc(OCC56CCN5CC(F)(F)C6)nc4c2F)N2C[C@H]4CC[C@H](N4)[C@H]2[C@H](C)O3)c1C(F)(F)F (stereo partly drawn) [Compound 220, 4-((5S,5aS,6S,9R)-12-((3,3-Difluoro-1-azabicyclo[3.2.0]heptan-5-yl)methoxy)-1-fluoro-5-methyl-5a,6,7,8,9,10-hexahydro-5H-4-oxa-3,10a,11,13,14-pentaaza-6,9-methanonaphtho[1,8-ab]heptalene-2-yl)-3-fluoro-6-methyl-5-(trifluoromethyl)pyridin-2-amine] | 9.04 | 6.83
9 | Cc1nc(N)c(F)c(-c2nc3c4c(nc(OCC5(CN6C[C@@H]7C[C@H]6CO7)CC5)nc4c2F)N2C[C@H]4CC[C@H](N4)[C@H]2[C@H](C)O3)c1C(F)(F)F [Compound 222, 4-((5S,5aS,6S,9R)-12-((1-(((1S,4S)-2-Oxa-5-azabicyclo[2.2.1]heptan-5-yl)methyl)cyclopropyl)methoxy)-1-fluoro-5-methyl-5a,6,7,8,9,10-hexahydro-5H-4-oxa-3,10a,11,13,14-pentaaza-6,9-methanonaphtho[1,8-ab]heptalene-2-yl)-3-fluoro-6-methyl-5-(trifluoromethyl)pyridin-2-amine] | 8.47 | 7.34
10 | Cc1nc(N)c(F)c(-c2nc3c4c(nc(OCC5(CN6C[C@H]7C[C@@H]6CO7)CC5)nc4c2F)N2C[C@H]4CC[C@H](N4)[C@H]2[C@H](C)O3)c1C(F)(F)F [Compound 223, 4-((5S,5aS,6S,9R)-12-((1-(((1R,4R)-2-Oxa-5-azabicyclo[2.2.1]heptan-5-yl)methyl)cyclopropyl)methoxy)-1-fluoro-5-methyl-5a,6,7,8,9,10-hexahydro-5H-4-oxa-3,10a,11,13,14-pentaaza-6,9-methanonaphtho[1,8-ab]heptalene-2-yl)-3-fluoro-6-methyl-5-(trifluoromethyl)pyridin-2-amine] | 8.47 | 7.29
11 | Cc1c(F)c(N)c(F)c(-c2nc3c4c(nc(OCC5(CN6CCOCC6)CC5)nc4c2F)N2C[C@H]4CC[C@H](N4)[C@H]2[C@H](C)O3)c1C(F)(F)F [Compound 224, 2,6-Difluoro-3-((5S,5aS,6S,9R)-1-fluoro-5-methyl-12-((1-(morpholinomethyl)cyclopropyl)methoxy)-5a,6,7,8,9,10-hexahydro-5H-4-oxa-3,10a,11,13,14-pentaaza-6,9-methanonaphtho[1,8-ab]heptalen-2-yl)-5-methyl-4-(trifluoromethyl)aniline] | 9.74 | 7.92
12 | Cc1c(F)c(N)c(F)c(-c2nc3c4c(nc(OC[C@@]56CCCN5CC5(CC5(F)F)C6)nc4c2F)N2C[C@H]4CC[C@H](N4)[C@H]2[C@H](C)O3)c1C(F)(F)F (stereo partly drawn) [Compound 225, 3-((5S,5aS,6S,9R)-12-(((7a′S)-2,2-Difluorodihydro-1′H,3′H-spiro[cyclopropane-1,2′-pyrrolizin]-7a′(5′H)-yl)methoxy)-1-fluoro-5-methyl-5a,6,7,8,9,10-hexahydro-5H-4-oxa-3,10a,11,13,14-pentaaza[6,9]methanonaphtho[1,8-ab]heptalene-2-yl)-2,6-difluoro-5-methyl-4-(trifluoromethyl)aniline] | 9.60 | 8.38
13 | Cc1cc(N)c(F)c(-c2nc3c4c(nc(OCC5(CN6CCOCC6)CC5)nc4c2F)N2C[C@H]4CC[C@H](N4)[C@H]2[C@H](C)O3)c1C(F)(F)F [Compound 226, 2-Fluoro-3-((5S,5aS,6S,9R)-1-fluoro-5-methyl-12-((1-(morpholinomethyl)cyclopropyl)methoxy)-5a,6,7,8,9,10-hexahydro-5H-4-oxa-3,10a,11,13,14-pentaaza-6,9-methanonaphtho[1,8-ab]heptalene-2-yl)-5-methyl-4-(trifluoromethyl)aniline] | 9.40 | 8.09
14 | Cc1cc(N)c(F)c(-c2nc3c4c(nc(OC[C@@]56CCCN5CC5(CC5(F)F)C6)nc4c2F)N2C[C@H]4CC[C@H](N4)[C@H]2[C@H](C)O3)c1C(F)(F)F (stereo partly drawn) [Compound 227, 3-((5S,5aS,6S,9R)-12-(((7a′S)-2,2-Difluorodihydro-1′H,3′H-spiro[cyclopropane-1,2′-pyrrolizin]-7a′(5′H)-yl)methoxy)-1-fluoro-5-methyl-5a,6,7,8,9,10-hexahydro-5H-4-oxa-3,10a,11,13,14-pentaaza[6,9]methanonaphtho[1,8-ab]heptalene-2-yl)-2-fluoro-5-methyl-4-(trifluoromethyl)aniline] | 9.68 | 9.03
15 | Cc1c(F)c(N)c(F)c(-c2nc3c4c(nc(OC[C@@H]5C[C@@H](F)CN5C)nc4c2F)N2C[C@H]4CC[C@H](N4)[C@H]2[C@H](C)O3)c1C(F)(F)F [Compound 228, 2,6-Difluoro-3-((5S,5aS,6S,9R)-1-fluoro-12-(((2S,4R)-4-fluoro-1-methylpyrrolidin-2-yl)methoxy)-5-methyl-5a,6,7,8,9,10-hexahydro-5H-4-oxa-3,10a,11,13,14-pentaaza-6,9-methanonaphtho[1,8-ab]heptalen-2-yl)-5-methyl-4-(trifluoromethyl)aniline] | 6.43 | 5.31
16 | Cc1c(F)c(N)c(F)c(-c2nc3c4c(nc(OC[C@@]56CCCN5C/C(=C\F)C6)nc4c2F)N2C[C@H]4CC[C@H](N4)[C@H]2[C@H](C)O3)c1C(F)(F)F [Compound 229, 2,6-Difluoro-3-((5S,5aS,6S,9R)-1-fluoro-12-(((S,Z)-2-(fluoromethylene)tetrahydro-1H-pyrrolizin-7a(5H)-yl)methoxy)-5-methyl-5a,6,7,8,9,10-hexahydro-5H-4-oxa-3,10a,11,13,14-pentaaza-6,9-methanonaphtho[1,8-ab]heptalene-2-yl)-5-methyl-4-(trifluoromethyl)aniline] | 9.44 | 7.92
